# Measured values reported in article PMC3607609 (PLoS ONE, 2013).
# Values joined by “and” are separate entries in the source; they are usually repeats but may differ in a detail not shown here. Identical values can stand only once. “Also recorded” adds a separate entry of the source. Like-named read-outs stand apart in the source and are kept apart here. Positions of bridges follow the written chain, without caps; N, C: chain ends. Residues, ends and D or L forms follow the SMILES beside them.
# Assays:
# Cav3 = test system: Cav3; parameters: method as in PMID 10991994, PMID 9481480; conditions: different systems; cited from earlier work
# L-type channels = test system: L-type channels; parameters: method as in PMID 10991994, PMID 7565636; conditions: cited from earlier work
# [1] = test system: resistant KCl-evoked Ca^2+ responses in SH-SY5Y cells; assay: cells; assay type: cell-based, human; conditions: for IC50: Homo sapiens, SH-SY5Y, read-out: Ca2+ inhibition IC50, resistant responses
# α2δ = test system: α2δ; parameters: method as in PMID 19559597; conditions: cited from earlier work
# [2] = biological target: Cav2.2 channels endogenously expressed in SH-SY5Y cells (Homo sapiens, UniProt Q00975); assay: cell-based
# [3] = biological target: Cav2.2 expressed in SH-SY5Y membranes (Homo sapiens, UniProt Q00975); assay: biochemical; assay type: binding
# [4] = biological target: Cav2.2 expressed in rat brain (Rattus norvegicus, UniProt Q02294); assay: biochemical; assay type: binding, rat (male Wistar)
# [5] = biological target: Cav2.2 expressed in SH-SY5Y whole cell (Homo sapiens, UniProt Q00975); assay: cell-based; assay type: binding
# [6] = biological target: Cav1 channels endogenously expressed in SH-SY5Y cells (Homo sapiens, UniProt Q01668); assay: Inhibition of KCl-evoked Cav1 Ca2+ responses in presence of CVID, FLIPR-Tetra; assay type: cell-based; conditions: in presence of saturating CVID
# [7] = test system: Cav channels endogenously expressed in SH-SY5Y cells; assay type: cell-based, human
# [8] = in presence of CVID and nifedipine, agatoxins and SNX 482 up to 10 µM, mibefradil 30 µM
# Sequence of Cav2.2 expressed in SH-SY5Y whole cell (Q00975 whole entry, looked up): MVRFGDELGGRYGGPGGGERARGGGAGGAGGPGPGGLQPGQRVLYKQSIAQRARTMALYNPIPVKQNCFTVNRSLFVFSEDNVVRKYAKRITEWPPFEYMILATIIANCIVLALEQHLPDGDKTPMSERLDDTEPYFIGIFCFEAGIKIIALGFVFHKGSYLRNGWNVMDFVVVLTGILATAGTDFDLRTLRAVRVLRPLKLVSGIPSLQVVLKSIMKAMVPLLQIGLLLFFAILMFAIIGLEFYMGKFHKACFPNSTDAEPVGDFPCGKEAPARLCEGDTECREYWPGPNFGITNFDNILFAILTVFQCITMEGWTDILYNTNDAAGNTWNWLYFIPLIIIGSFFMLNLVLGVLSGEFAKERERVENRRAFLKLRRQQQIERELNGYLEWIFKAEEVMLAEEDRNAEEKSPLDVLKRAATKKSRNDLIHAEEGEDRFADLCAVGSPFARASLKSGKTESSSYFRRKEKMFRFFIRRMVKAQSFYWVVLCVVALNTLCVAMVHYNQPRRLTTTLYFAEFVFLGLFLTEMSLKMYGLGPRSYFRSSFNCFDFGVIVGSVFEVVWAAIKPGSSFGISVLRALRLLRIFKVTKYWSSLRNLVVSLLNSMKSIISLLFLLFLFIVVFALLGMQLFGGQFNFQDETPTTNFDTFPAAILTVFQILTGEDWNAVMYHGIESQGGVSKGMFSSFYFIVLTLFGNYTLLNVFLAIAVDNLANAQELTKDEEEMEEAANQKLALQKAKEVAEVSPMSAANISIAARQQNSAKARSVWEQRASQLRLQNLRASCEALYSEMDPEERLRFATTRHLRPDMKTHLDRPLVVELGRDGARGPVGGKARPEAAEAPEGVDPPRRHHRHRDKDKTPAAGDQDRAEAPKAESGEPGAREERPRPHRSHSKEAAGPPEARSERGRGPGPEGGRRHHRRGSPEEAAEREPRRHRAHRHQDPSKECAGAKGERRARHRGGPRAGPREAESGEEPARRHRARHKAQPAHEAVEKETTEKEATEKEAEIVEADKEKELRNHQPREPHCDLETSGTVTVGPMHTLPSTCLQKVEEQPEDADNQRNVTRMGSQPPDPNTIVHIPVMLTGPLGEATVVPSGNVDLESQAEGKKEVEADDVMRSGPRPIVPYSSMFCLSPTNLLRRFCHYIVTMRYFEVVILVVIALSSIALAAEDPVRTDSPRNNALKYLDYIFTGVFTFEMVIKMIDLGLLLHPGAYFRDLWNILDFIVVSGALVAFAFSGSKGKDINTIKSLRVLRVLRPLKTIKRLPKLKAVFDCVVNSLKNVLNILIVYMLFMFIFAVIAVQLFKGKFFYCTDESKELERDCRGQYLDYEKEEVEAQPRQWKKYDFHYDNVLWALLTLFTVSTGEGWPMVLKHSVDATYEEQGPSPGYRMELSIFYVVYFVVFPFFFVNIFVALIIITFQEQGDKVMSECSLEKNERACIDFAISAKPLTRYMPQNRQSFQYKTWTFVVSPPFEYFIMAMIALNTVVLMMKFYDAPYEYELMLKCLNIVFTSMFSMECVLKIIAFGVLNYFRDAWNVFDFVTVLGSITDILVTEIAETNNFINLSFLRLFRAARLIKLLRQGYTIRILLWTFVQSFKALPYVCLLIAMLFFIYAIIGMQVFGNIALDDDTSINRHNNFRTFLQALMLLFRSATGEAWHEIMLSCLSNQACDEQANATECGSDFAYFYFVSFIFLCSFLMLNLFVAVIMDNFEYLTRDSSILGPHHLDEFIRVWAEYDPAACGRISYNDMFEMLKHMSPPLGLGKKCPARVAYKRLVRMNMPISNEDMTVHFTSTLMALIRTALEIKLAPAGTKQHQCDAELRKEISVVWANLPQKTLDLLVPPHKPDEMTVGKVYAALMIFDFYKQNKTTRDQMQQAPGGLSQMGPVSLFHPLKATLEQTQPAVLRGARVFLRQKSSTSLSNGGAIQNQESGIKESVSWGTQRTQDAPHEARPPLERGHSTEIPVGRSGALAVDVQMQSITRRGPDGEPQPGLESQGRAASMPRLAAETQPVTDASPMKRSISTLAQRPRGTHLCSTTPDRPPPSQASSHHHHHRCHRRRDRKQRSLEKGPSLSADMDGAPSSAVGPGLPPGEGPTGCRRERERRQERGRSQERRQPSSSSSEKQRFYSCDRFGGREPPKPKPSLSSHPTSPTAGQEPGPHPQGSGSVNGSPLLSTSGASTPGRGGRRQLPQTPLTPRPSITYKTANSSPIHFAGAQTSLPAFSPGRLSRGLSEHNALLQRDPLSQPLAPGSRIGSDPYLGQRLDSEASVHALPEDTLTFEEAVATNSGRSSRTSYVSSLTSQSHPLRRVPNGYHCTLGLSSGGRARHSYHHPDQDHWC
# Sequence of Cav2.2 expressed in SH-SY5Y membranes (Q00975 whole entry, looked up): as above
# Sequence of Cav2.2 channels endogenously expressed in SH-SY5Y cells (Q00975 whole entry, looked up): as above
# Sequence of Cav2.2 expressed in rat brain (Q02294 whole entry, looked up): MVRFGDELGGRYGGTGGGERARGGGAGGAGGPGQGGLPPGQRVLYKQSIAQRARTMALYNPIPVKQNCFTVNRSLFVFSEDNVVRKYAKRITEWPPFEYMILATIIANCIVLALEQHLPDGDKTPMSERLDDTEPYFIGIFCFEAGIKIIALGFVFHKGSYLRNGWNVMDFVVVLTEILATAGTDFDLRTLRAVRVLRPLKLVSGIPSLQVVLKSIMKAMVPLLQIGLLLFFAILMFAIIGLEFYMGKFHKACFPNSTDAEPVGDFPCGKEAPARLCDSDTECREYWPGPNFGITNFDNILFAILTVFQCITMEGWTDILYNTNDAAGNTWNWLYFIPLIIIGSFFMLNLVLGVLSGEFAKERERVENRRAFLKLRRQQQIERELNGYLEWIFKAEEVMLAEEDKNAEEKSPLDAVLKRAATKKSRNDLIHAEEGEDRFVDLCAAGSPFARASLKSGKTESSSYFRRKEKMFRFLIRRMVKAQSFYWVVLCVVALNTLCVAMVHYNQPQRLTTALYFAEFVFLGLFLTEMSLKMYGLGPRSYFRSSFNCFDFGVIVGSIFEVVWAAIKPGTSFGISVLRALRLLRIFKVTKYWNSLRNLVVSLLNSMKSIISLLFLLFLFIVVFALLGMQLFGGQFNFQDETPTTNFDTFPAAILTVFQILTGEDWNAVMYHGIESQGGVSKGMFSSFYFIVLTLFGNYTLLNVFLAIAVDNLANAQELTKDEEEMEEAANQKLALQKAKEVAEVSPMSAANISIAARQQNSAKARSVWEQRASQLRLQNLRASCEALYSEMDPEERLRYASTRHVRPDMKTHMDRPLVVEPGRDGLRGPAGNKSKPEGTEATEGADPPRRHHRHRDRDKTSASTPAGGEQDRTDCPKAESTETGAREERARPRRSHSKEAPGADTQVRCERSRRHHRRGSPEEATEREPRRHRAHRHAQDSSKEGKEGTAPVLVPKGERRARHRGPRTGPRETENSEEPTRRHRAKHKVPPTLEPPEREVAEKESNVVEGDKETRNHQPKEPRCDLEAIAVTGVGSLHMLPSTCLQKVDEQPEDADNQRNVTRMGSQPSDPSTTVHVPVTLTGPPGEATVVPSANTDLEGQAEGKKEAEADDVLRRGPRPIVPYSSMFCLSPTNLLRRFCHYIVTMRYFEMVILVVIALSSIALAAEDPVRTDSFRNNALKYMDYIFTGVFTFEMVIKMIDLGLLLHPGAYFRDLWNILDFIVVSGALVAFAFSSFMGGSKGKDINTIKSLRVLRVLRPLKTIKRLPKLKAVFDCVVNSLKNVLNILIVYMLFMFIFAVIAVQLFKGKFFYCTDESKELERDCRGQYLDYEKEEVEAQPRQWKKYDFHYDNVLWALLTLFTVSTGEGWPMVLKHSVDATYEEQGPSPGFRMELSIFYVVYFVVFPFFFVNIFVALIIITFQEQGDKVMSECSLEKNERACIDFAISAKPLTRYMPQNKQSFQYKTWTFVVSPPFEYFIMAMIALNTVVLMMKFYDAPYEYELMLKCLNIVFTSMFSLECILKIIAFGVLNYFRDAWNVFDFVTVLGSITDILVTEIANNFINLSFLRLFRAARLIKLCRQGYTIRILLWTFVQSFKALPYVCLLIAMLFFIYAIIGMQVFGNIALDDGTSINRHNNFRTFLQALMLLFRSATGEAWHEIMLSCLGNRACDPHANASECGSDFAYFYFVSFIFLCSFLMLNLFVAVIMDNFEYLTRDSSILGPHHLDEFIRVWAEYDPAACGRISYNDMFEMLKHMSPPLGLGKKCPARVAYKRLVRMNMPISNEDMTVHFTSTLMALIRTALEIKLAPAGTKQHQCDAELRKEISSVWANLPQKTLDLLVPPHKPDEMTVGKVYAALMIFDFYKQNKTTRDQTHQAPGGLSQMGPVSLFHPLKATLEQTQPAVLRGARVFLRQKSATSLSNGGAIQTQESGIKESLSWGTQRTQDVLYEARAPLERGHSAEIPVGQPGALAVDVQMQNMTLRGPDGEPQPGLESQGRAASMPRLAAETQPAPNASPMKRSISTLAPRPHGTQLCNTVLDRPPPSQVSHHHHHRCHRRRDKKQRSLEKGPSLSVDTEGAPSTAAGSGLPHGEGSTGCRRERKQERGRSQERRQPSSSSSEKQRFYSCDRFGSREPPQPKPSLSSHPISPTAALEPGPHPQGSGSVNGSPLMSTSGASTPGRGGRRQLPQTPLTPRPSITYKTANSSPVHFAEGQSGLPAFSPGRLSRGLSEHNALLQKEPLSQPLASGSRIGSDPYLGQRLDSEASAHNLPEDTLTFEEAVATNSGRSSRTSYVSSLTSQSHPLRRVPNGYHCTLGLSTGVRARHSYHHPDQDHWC
molecule,measurement,setting,value
COCC(=O)O[C@]1(CCN(C)CCCc2nc3ccccc3[nH]2)CCc2cc(F)ccc2[C@@H]1C(C)C [mibefradil],Inhibition of Cav3 responses (in words),Cav3,weak affinity
same,Inhibition of L-type channels (in words),L-type channels,also inhibit L-type channels
same,IC50,[1],3 ± 0.031 µM
same,Effect on resistant KCl-evoked Ca2+ responses (in words),[1]; [8],fully inhibited these remaining responses; also recorded: completely abolished
ω-agatoxin,Effect on resistant KCl-evoked Ca2+ responses (in words),[1],not blocked
NCC1(CC(=O)O)CCCCC1 [gabapentin],Effect of α2δ binding on Cav2.2 trafficking and pain (in words),α2δ,reducing Cav2.2 trafficking and the symptoms of pain
C[C@@H](O)[C@@H]1NC(=O)[C@H](Cc2ccc(O)cc2)NC(=O)[C@@H]2C[C@@H](O)CN2C(=O)[C@H](CC(N)=O)NC(=O)[C@@H]2CSSC[C@@H]3NC(=O)[C@H](CO)NC(=O)[C@H](CO)NC(=O)CNC(=O)[C@@H]4C[C@@H](O)CN4C(=O)[C@H](CO)NC(=O)[C@H](CCCCN)NC(=O)[C@@H](N)CSSC[C@H](NC(=O)[C@H](CSSC[C@@H](C(=O)N[C@@H](Cc4ccc(O)cc4)C(N)=O)NC(=O)[C@H](CCCN=C(N)N)NC(=O)[C@H](CCCCN)NC1=O)NC(=O)[C@H](CC(N)=O)NC(=O)[C@H](Cc1ccc(O)cc1)NC(=O)[C@H](CO)NC(=O)[C@H]([C@@H](C)O)NC(=O)[C@@H]1C[C@@H](O)CN1C(=O)[C@H](CO)NC3=O)C(=O)N[C@@H](CCCN=C(N)N)C(=O)N[C@@H](CO)C(=O)N2 [GVIA],IC50,[2],0.15 ± 0.09 µM
same,IC50,[3],0.0282 nM
same,IC50,[4],0.0372 nM
same,Kd,[5],0.00027 ± 8.4e-05 µM
COC(=O)C1=C(C)NC(C)=C(C(=O)OC)C1c1ccccc1[N+](=O)[O-] [nifedipine],Block of L-type KCl responses (in words),[6],concentration-dependently blocked KCl responses
SNX 482,"Ca2+ inhibition IC50, resistant responses",[1],NDR
same,Effect on resistant KCl-evoked Ca2+ responses (in words),[1],no significant inhibitory effect; also recorded: not blocked
ω-agatoxin IVA,Effect on resistant KCl-evoked Ca2+ responses (in words),[1],did not significantly affect KCl-evoked Ca^2+ responses
KCl,Hill slope,[7],2.5 and 2.9 and 3.5
same,KCl-evoked Ca2+ response (in words),[7],evoked a large transient response; also recorded: elicits maximal Cav1 and Cav2.2 responses
same,pEC50 for KCl-mediated stimulation,[7],1.69±0.12
same,EC50,[7]; read-out: Ca2+ stimulation EC50,17300 ± 3410 µM
O=c1[nH]c2ccccc2n1C1CCN(CCCC(c2ccc(F)cc2)c2ccc(F)cc2)CC1 [pimozide],Inhibition of L-type channels (in words),L-type channels,also inhibit L-type channels
same,IC50,[1],1.3 ± 0.097 µM
same,Effect on resistant KCl-evoked Ca2+ responses (in words),[1]; [8],fully inhibited the remaining responses; also recorded: completely abolished
"CSCC[C@@H]1NC(=O)[C@H](CC(C)C)NC(=O)[C@H](CCCCN)NC(=O)[C@H](CO)NC(=O)[C@@H]2CSSC[C@@H]3NC(=O)[C@H](CO)NC(=O)CNC(=O)[C@H](CO)NC(=O)[C@H](CSSC[C@H](N)C(=O)N[C@@H](CCCCN)C(=O)N[C@@H](CO)C(=O)N[C@@H](CCCCN)C(=O)NCC(=O)N[C@@H](C)C(=O)N[C@@H](CCCCN)C(=O)N2)NC(=O)[C@H](CSSC[C@@H](C(N)=O)NC(=O)[C@H](CCCNC(=N)N)NC(=O)CNC(=O)[C@H](C(C)C)NC(=O)[C@H]([C@@H](C)O)NC(=O)CNC(=O)[C@H](CO)NC3=O)NC(=O)[C@H](CC(=O)O)NC(=O)[C@H](Cc2ccc(O)cc2)NC1=O [CVID] (H-CKSKGAKCSKLMYDCCSGSCSGTVGRC-NH2; disulfide 1-16, 8-20, 15-27)",IC50,[2],0.16 ± 0.025 µM
same,IC50,[3],0.00309 nM
same,IC50,[4],0.0295 nM
same,Kd,[5],0.0032 ± 0.0002 µM
